{"source": "patent US9765074B2", "about": "“Inhibitors of the renal outer medullary potassium channel” (Merck Sharp & Dohme Corp., priority 2013, dated 2017)", "target": "T1, hROMK (hKir1.1) (Homo sapiens, UniProt P48048)", "T1 construct": "expressed in transfected cells", "T1 sequence (P48048 1-391)": "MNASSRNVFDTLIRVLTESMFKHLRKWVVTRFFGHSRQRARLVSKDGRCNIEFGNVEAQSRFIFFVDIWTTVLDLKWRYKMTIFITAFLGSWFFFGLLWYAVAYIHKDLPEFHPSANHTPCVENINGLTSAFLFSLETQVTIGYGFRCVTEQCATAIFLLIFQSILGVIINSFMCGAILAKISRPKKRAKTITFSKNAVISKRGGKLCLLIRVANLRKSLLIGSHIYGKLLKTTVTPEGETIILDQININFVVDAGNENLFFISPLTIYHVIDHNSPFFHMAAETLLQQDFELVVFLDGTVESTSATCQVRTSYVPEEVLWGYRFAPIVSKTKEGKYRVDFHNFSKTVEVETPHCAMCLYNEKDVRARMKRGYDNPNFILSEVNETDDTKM", "assay": "Thallium Flux Assay (ROMK channel functional thallium flux, FLIPR-Tetra)", "type": "cell-based", "conditions": "HEK293 cells stably expressing hROMK (hKir1.1); 30 min compound incubation", "summary_of_the_method": "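HEK293 cells stably expressing hKir1.1, loaded with FluxOR dye for 90 min, then preincubated with compound for 30 min at ambient temperature with 0.3 mM ouabain and probenecid. Stimulated with 3 mM thallium/0.3 mM potassium (final); fluorescence read ~10 min. Normalized to 3 μM reference ROMK inhibitor; IC50 from inhibition of flux.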"}
{"smiles": "Cc1nc([C@@H](O)CN2CCC3(CC2)CCN(C2=CC(=O)OC2)C3=O)ccc1-n1cnnn1", "note": "[Example 5, 8-{(2S)-2-hydroxy-2-[6-methyl-5-(1H-tetrazol-1-yl)pyridin-2-yl]ethyl}-1-oxo-2-(5-oxo-2,5-dihydrofuran-3-yl)-2-aza-8-azoniaspiro[4.5]decane]", "values": [{"measurement": "IC50", "result": 0.04, "unit": "µM"}]}
{"smiles": "Cc1cc([C@H](O)CN2CCC3(CC2)CCN(C2=CC(=O)OC2)C3=O)ncc1-n1cnnn1", "note": "[Example 6, 8-{(2R)-2-hydroxy-2-[4-methyl-5-(1H-tetrazol-1-yl)pyridin-2-yl]ethyl}-1-oxo-2-(5-oxo-2,5-dihydrofuran-3-yl)-2-aza-8-azoniaspiro[4.5]decane]", "values": [{"measurement": "IC50", "result": 0.05, "unit": "µM"}]}
{"smiles": "Cc1cc([C@@H](O)CN2CCC3(CC2)CCN(C2=CC(=O)OC2)C3=O)ncc1-n1cnnn1", "note": "[Example 7, 8-{(2S)-2-hydroxy-2-[4-methyl-5-(1H-tetrazol-1-yl)pyridin-2-yl]ethyl}-1-oxo-2-(5-oxo-2,5-dihydrofuran-3-yl)-2-aza-8-azoniaspiro[4.5]decane]", "values": [{"measurement": "IC50", "result": 0.08, "unit": "µM"}]}
{"smiles": "Cc1nc([C@H](O)CN2CCC3(CC2)CCN(C2=CC(=O)OC2)C3=O)ccc1-n1cnnn1", "note": "[Example 8, 8-{(2R)-2-hydroxy-2-[6-methyl-5-(1H-tetrazol-1-yl)pyridin-2-yl]ethyl}-1-oxo-2-(5-oxo-2,5-dihydrofuran-3-yl)-2-aza-8-azoniaspiro[4.5]decane]", "values": [{"measurement": "IC50", "result": 0.06, "unit": "µM"}]}
{"smiles": "O=C1C=C(N2CCC3(CCN(C[C@H](O)c4cnc(-n5cnnn5)nc4)CC3)C2=O)CO1", "note": "[Example 9, 8-{(2R)-2-hydroxy-2-[2-(1H-tetrazol-1-yl)pyrimidin-5-yl]ethyl}-1-oxo-2-(5-oxo-2,5-dihydrofuran-3-yl)-2-aza-8-azoniaspiro[4.5]decane]", "values": [{"measurement": "IC50", "result": 0.08, "unit": "µM"}]}
{"smiles": "Cc1cc(-n2cnnn2)ccc1[C@@H](O)CN1CCC2(CC1)CCN(C1=CC(=O)OC1)C2=O", "note": "[Example 11, 8-{(2R)-2-hydroxy-2-[2-methyl-4-(1H-tetrazol-1-yl)phenyl]ethyl}-1-oxo-2-(5-oxo-2,5-dihydrofuran-3-yl)-2-aza-8-azoniaspiro[4.5]decane]", "values": [{"measurement": "IC50", "result": 0.02, "unit": "µM"}]}
{"smiles": "Cc1cc(-n2cnnn2)ccc1[C@H](O)CN1CCC2(CC1)CCN(C1=CC(=O)OC1)C2=O", "note": "[Example 12, 8-{(2S)-2-hydroxy-2-[2-methyl-4-(1H-tetrazol-1-yl)phenyl]ethyl}-1-oxo-2-(5-oxo-2,5-dihydrofuran-3-yl)-2-aza-8-azoniaspiro[4.5]decane]", "values": [{"measurement": "IC50", "result": 0.01, "unit": "µM"}]}
{"smiles": "O=C1C=C(N2CCC3(CCN(C[C@H](O)c4ccc(-n5cnnn5)cc4F)CC3)C2=O)CO1", "note": "[Example 13, 8-{(2R)-2-[2-fluoro-4-(1H-tetrazol-1-yl)phenyl]-2-hydroxyethyl}-1-oxo-2-(5-oxo-2,5-dihydrofuran-3-yl)-2-aza-8-azoniaspiro[4.5]decane]", "values": [{"measurement": "IC50", "result": 0.02, "unit": "µM"}]}
{"smiles": "O=C1C=C(N2CCC3(CCN(C[C@@H](O)c4ccc(-n5cnnn5)cc4F)CC3)C2=O)CO1", "note": "[Example 14, 8-{(2S)-2-[2-fluoro-4-(1H-tetrazol-1-yl)phenyl]-2-hydroxyethyl}-1-oxo-2-(5-oxo-2,5-dihydrofuran-3-yl)-2-aza-8-azoniaspiro[4.5]decane]", "values": [{"measurement": "IC50", "result": 0.02, "unit": "µM"}]}
{"smiles": "COc1cc(-n2cnnn2)ccc1[C@@H](O)CN1CCC2(CC1)CCN(C1=CC(=O)OC1)C2=O", "note": "[Example 15, 8-{(2R)-2-hydroxy-2-[2-methoxy-4-(1H-tetrazol-1-yl)phenyl]ethyl}-1-oxo-2-(5-oxo-2,5-dihydrofuran-3-yl)-2-aza-8-azoniaspiro[4.5]decane]", "values": [{"measurement": "IC50", "result": 0.01, "unit": "µM"}]}
{"smiles": "COc1cc(-n2cnnn2)ccc1[C@H](O)CN1CCC2(CC1)CCN(C1=CC(=O)OC1)C2=O", "note": "[Example 16, 8-{(2S)-2-hydroxy-2-[2-methoxy-4-(1H-tetrazol-1-yl)phenyl]ethyl}-1-oxo-2-(5-oxo-2,5-dihydrofuran-3-yl)-2-aza-8-azoniaspiro[4.5]decane]", "values": [{"measurement": "IC50", "result": 0.02, "unit": "µM"}]}
{"smiles": "CC1=C(N2CCC3(CCN(C[C@H](O)c4cnc(-n5cnnn5)nc4)CC3)C2=O)COC1=O", "note": "[Example 17, 8-{(2R)-2-hydroxy-2-[2-(1H-tetrazol-1-yl)pyrimidin-5-yl]ethyl}-2-(4-methyl-5-oxo-2,5-dihydrofuran-3-yl)-1-oxo-2-aza-8-azoniaspiro[4.5]decane]", "values": [{"measurement": "IC50", "result": 0.03, "unit": "µM"}]}
{"smiles": "CC1=C(N2CCC3(CCN(C[C@H](O)c4ccc(-n5cnnn5)nc4)CC3)C2=O)COC1=O", "note": "[Example 18, 8-{(2R)-2-hydroxy-2-[6-(1H-tetrazol-1-yl)pyridin-3-yl]ethyl}-2-(4-methyl-5-oxo-2,5-dihydrofuran-3-yl)-1-oxo-2-aza-8-azoniaspiro[4.5]decane]", "values": [{"measurement": "IC50", "result": 0.01, "unit": "µM"}]}
{"smiles": "CC1=C(N2CCC3(CCN(C[C@@H](O)c4ccc(-n5cnnn5)nc4)CC3)C2=O)COC1=O", "note": "[Example 19, 8-{(2S)-2-hydroxy-2-[6-(1H-tetrazol-1-yl)pyridin-3-yl]ethyl}-2-(4-methyl-5-oxo-2,5-dihydrofuran-3-yl)-1-oxo-2-aza-8-azoniaspiro[4.5]decane]", "values": [{"measurement": "IC50", "result": 0.03, "unit": "µM"}]}
{"smiles": "CC1=C(N2CCC3(CCN(C[C@H](O)c4ccc(-n5cnnn5)nc4C)CC3)C2=O)COC1=O", "note": "[Example 20, 8-{(2R)-2-hydroxy-2-[2-methyl-6-(1H-tetrazol-1-yl)pyridin-3-yl]ethyl}-2-(4-methyl-5-oxo-2,5-dihydrofuran-3-yl)-1-oxo-2-aza-8-azoniaspiro[4.5]decane]", "values": [{"measurement": "IC50", "result": 0.03, "unit": "µM"}]}
{"smiles": "CC1=C(N2CCC3(CCN(C[C@@H](O)c4ccc(-n5cnnn5)nc4C)CC3)C2=O)COC1=O", "note": "[Example 21, 8-{(2S)-2-hydroxy-2-[2-methyl-6-(1H-tetrazol-1-yl)pyridin-3-yl]ethyl}-2-(4-methyl-5-oxo-2,5-dihydrofuran-3-yl)-1-oxo-2-aza-8-azoniaspiro[4.5]decane]", "values": [{"measurement": "IC50", "result": 0.04, "unit": "µM"}]}
{"smiles": "CC1=C(N2CCC3(CCN(C[C@H](O)c4ccc(-n5cnnn5)cn4)CC3)C2=O)COC1=O", "note": "[Example 22, 8-{(2S)-2-hydroxy-2-[5-(1H-tetrazol-1-yl)pyridin-2-yl]ethyl}-2-(4-methyl-5-oxo-2,5-dihydrofuran-3-yl)-1-oxo-2-aza-8-azoniaspiro[4.5]decane]", "values": [{"measurement": "IC50", "result": 0.01, "unit": "µM"}]}
{"smiles": "CC1=C(N2CCC3(CCN(C[C@@H](O)c4ccc(-n5cnnn5)cn4)CC3)C2=O)COC1=O", "note": "[Example 23, 8-{(2R)-2-hydroxy-2-[5-(1H-tetrazol-1-yl)pyridin-2-yl]ethyl}-2-(4-methyl-5-oxo-2,5-dihydrofuran-3-yl)-1-oxo-2-aza-8-azoniaspiro[4.5]decane]", "values": [{"measurement": "IC50", "result": 0.02, "unit": "µM"}]}
{"smiles": "CC1=C(N2CCC3(CCN(C[C@H](O)c4cnc(-n5cnnn5)cn4)CC3)C2=O)COC1=O", "note": "[Example 24, 8-{(2S)-2-hydroxy-2-[5-(1H-tetrazol-1-yl)pyrazin-2-yl]ethyl}-2-(4-methyl-5-oxo-2,5-dihydrofuran-3-yl)-1-oxo-2-aza-8-azoniaspiro[4.5]decane]", "values": [{"measurement": "IC50", "result": 0.02, "unit": "µM"}]}
{"smiles": "CC1=C(N2CCC3(CCN(C[C@@H](O)c4cnc(-n5cnnn5)cn4)CC3)C2=O)COC1=O", "note": "[Example 25, 8-{(2R)-2-hydroxy-2-[5-(1H-tetrazol-1-yl)pyrazin-2-yl]ethyl}-2-(4-methyl-5-oxo-2,5-dihydrofuran-3-yl)-1-oxo-2-aza-8-azoniaspiro[4.5]decane]", "values": [{"measurement": "IC50", "result": 0.03, "unit": "µM"}]}
{"smiles": "CC1=C(N2CCC3(CCN(C[C@H](O)c4cnc(-n5cnnn5)c(F)c4)CC3)C2=O)COC1=O", "note": "[Example 26, 8-{(2R)-2-[5-fluoro-6-(1H-tetrazol-1-yl)pyridin-3-yl]-2-hydroxyethyl}-2-(4-methyl-5-oxo-2,5-dihydrofuran-3-yl)-1-oxo-2-aza-8-azoniaspiro[4.5]decane]", "values": [{"measurement": "IC50", "result": 0.04, "unit": "µM"}]}
{"smiles": "CC1=C(N2CCC3(CCN(C[C@@H](O)c4cnc(-n5cnnn5)c(F)c4)CC3)C2=O)COC1=O", "note": "[Example 27, 8-{(2S)-2-[5-fluoro-6-(1H-tetrazol-1-yl)pyridin-3-yl]-2-hydroxyethyl}-2-(4-methyl-5-oxo-2,5-dihydrofuran-3-yl)-1-oxo-2-aza-8-azoniaspiro[4.5]decane]", "values": [{"measurement": "IC50", "result": 0.02, "unit": "µM"}]}
{"smiles": "CC1=C(N2CCC3(CCN(C[C@H](O)c4ncc(-n5cnnn5)cc4C)CC3)C2=O)COC1=O", "note": "[Example 28, 8-{(2S)-2-hydroxy-2-[3-methyl-5-(1H-tetrazol-1-yl)pyridin-2-yl]ethyl}-2-(4-methyl-5-oxo-2,5-dihydrofuran-3-yl)-1-oxo-2-aza-8-azoniaspiro[4.5]decane]", "values": [{"measurement": "IC50", "result": 0.03, "unit": "µM"}]}
{"smiles": "CC1=C(N2CCC3(CCN(C[C@@H](O)c4ncc(-n5cnnn5)cc4C)CC3)C2=O)COC1=O", "note": "[Example 29, 8-{(2R)-2-hydroxy-2-[3-methyl-5-(1H-tetrazol-1-yl)pyridin-2-yl]ethyl}-2-(4-methyl-5-oxo-2,5-dihydrofuran-3-yl)-1-oxo-2-aza-8-azoniaspiro[4.5]decane]", "values": [{"measurement": "IC50", "result": 0.04, "unit": "µM"}]}
{"smiles": "CC1=C(N2CCC3(CCN(C[C@H](O)c4ccc(-n5cnnn5)c(C)n4)CC3)C2=O)COC1=O", "note": "[Example 30, 8-{(2S)-2-hydroxy-2-[6-methyl-5-(1H-tetrazol-1-yl)pyridin-2-yl]ethyl}-2-(4-methyl-5-oxo-2,5-dihydrofuran-3-yl)-1-oxo-2-aza-8-azoniaspiro[4.5]decane]", "values": [{"measurement": "IC50", "result": 0.02, "unit": "µM"}]}
{"smiles": "CC1=C(N2CCC3(CCN(C[C@@H](O)c4ccc(-n5cnnn5)c(C)n4)CC3)C2=O)COC1=O", "note": "[Example 31, 8-{(2R)-2-hydroxy-2-[6-methyl-5-(1H-tetrazol-1-yl)pyridin-2-yl]ethyl}-2-(4-methyl-5-oxo-2,5-dihydrofuran-3-yl)-1-oxo-2-aza-8-azoniaspiro[4.5]decane]", "values": [{"measurement": "IC50", "result": 0.03, "unit": "µM"}]}
{"smiles": "CC1=C(N2CCC3(CCN(C[C@H](O)c4ccc(-n5cnnn5)nn4)CC3)C2=O)COC1=O", "note": "[Example 32, 8-{(2S)-2-hydroxy-2-[6-(1H-tetrazol-1-yl)pyridazin-3-yl]ethyl}-2-(4-methyl-5-oxo-2,5-dihydrofuran-3-yl)-1-oxo-2-aza-8-azoniaspiro[4.5]decane]", "values": [{"measurement": "IC50", "result": 0.02, "unit": "µM"}]}
